Where “and” joins values, the source holds several entries; their conditions need not be identical. Identical values can stand only once. Like-named read-outs stand apart in the source and are kept apart here.
What was measured:
VDR = target: T1, VDR (Homo sapiens, UniProt P11473); experiment: VDR CTF (Caco-2 cell co-transfection) assay; type: cell-based; settings: Caco-2 cells, Gal-4-VDR-LBD co-transfection; Table 1
T1 construct: the receptor expression vector pGal-4-VDR-LBD (10 ng); expressed in transfected cells; host or cells: Caco-2 cells
T1 sequence (P11473 127-423 limits assumed): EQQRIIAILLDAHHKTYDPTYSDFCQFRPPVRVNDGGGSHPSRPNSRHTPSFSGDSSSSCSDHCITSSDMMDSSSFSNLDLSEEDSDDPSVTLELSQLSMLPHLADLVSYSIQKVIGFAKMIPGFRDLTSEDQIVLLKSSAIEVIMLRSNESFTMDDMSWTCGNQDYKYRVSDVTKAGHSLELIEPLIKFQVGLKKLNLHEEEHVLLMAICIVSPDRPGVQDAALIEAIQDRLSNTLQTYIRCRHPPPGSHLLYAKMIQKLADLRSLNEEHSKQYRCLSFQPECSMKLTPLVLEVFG
Experimental: 2. The Caco-2 Cell Co-transfection Assay:
The Caco-2 cell assay is an indicator for the undesirable condition of hypercalcemia. This co-transfection assay is a surrogate assay for in vivo calcemic activity of VDR ligands. […] Preferred assay results are greater than 1000 nM.
(§1) Step 4: FuGENE, DNA and Media Complex to-well plate • Add FuGENE-DNA-Media complex from step 3 to each plate • Incubate. […] Day 4: Luciferase Assay • Read the plates after drug treatment • Remove part of media from all the wells and leave remainder • Add Steady-Glo Luciferase Reagent mixture/wells • Incubate • Count each well using a Luminescence counter, Top Count NXT by Packard Set a delay between plates to reduce the background. (2) Materials and Method for The Caco-2 Cell Assay:
Caco-2 cells, grown in phenol red free, DMEM (Invitrogen, Carlsbad, Calif.) containing 10% charcoal-stripped FCS (Hyclone, Logan, Utah), were transfected with Fugene 6 reagent (Roche Diagnostics, Indianapolis, Ind.). Cells (5000/well) were plated 18 h before transfection in a 96 well plate. The Cells were transfected with Gal-4-responsive reporter pFRLuc (150 ng, Stratagene, La Jolla Calif.) and the receptor expression vector pGal-4-VDR-LBD (10 ng), along with Fugene 6 reagent (0.2 μl/well). The DNA-Fugene complex was formed by incubating the mixture for 30 min at room temperature. The cells were transfected in triplicate for 5 h, and treated with various concentrations of VDR ligands (form 0.01 nM to 10,000 nM concentration range) 18 h post-transfection. The luciferase activity was quantified using Steady-Glo reagent kit (Promega, Madison, Wis.) as per manufacturer's specifications.

rat osteocalcin promoter = experiment: OCN (osteocalcin) promoter assay; type: cell-based; settings: RG-15 (ROS 17/2.8) cells, 48 hr treatment
Experimental: 3. The OCN (osteocalcin) Promoter Assay
The OCN Promoter Assay is an indicator and marker for osteoporosis. […] Preferred assay results are less than 50 nM.
(3) Materials and Method for The OCN Promoter Assay:
The activation of osteocalcin by VDR ligands was evaluated in a rat osteoblast-like cell line RG-15 (ROS 17/2.8) stably expressing rat osteocalcin promoter fused with luciferase reporter gene. […] After 24 hr, cells (in DMEM/F-12 medium +2% FBS) were treated with various concentrations of compounds, dissolved in DMSO. The final DMSO concentration remained at 0.01% (v/v). After 48 hr treatment, the medium was removed, cells were lysed with 50 μl of lysis buffer (From Luciferase reporter assay system, Roche Diagnostics, Indianapolis, Ind.) and assayed for luciferase activity using the Luciferase Reporter Gene Assay kit from Boehringer Mannheim as per manufacturer's specifications.

KERtr cells = experiment: Keratinocyte proliferation assay; type: cell-based, Human; settings: BrdU incorporation
Experimental: 5. The Keratinocyte Proliferation Assay
This Assay is indicative for the treatment of psoriasis.
(5) The Keratinocyte Proliferation Assay:
KERtr cells (Human skin keratinocyte transformed with a retrovirus vector, obtained from ATCC) were plated in 96-well flat-bottomed plates (3000 cells/well) in 100 μl keratinocyte serum free medium supplemented with bovine pituitary extract in the absence of EGF (Life Technologies, Rockville, Md.) and incubated at 37° C. for two days. The cells were treated with various concentrations of VDR ligands (ten-fold serial dilution from 10,000 nM to 0.1 nM in triplicate), dissolved in 100 μl keratinocyte serum free medium supplemented with bovine pituitary extract in the absence of EGF and incubated at 37° C. for 72 hr. […] Potency values (IC50) values were determined as the concentration (nM) of compound that elicited a half-maximal response.

[1] = Mouse hypercalcemia assay; settings: six day hypercalcemia test, oral gavage, serum ionized calcium
Experimental: The Mouse Hypercalcemia Assay
The Mouse Hypercalcemia Assay is a six day hypercalcemia test for toxicity and selectivity. Acceptable test results are levels greater than 300 μg/kg/day. Preferred assay results are levels greater than 1000 μg/kg/day.
(4) Materials and Method for The Mouse Hypercalcemia Assay:
Weanling, virus-antibody-free, five to six weeks old female DBF mice (Harlan, Indianapolis, Ind.) are used for all the studies. Animals are allowed to acclimate to local vivarium conditions for 2 days. […] The animals then are divided into groups with 4-5 mice per group. Different doses of test compounds prepared in 10% Ethanol and 90% sesame oil are administered to mice orally via gavage for 6 days. 1α-25(OH)2D3 0.5 μg/kg/d was also given to one group of mice as the positive control. […] Raw data of group differences is assessed by analysis of variance (ANOVA) using Fisher's protected least significant difference (PLSD) where the significance level was P<0.05.

RXR-VDR heterodimer = target: T2, RXR-VDR heterodimer (Homo sapiens, UniProt P11473); experiment: RXR-VDR heterodimerization assay (SaOS-2 cells); type: cell-based; settings: luciferase reporter, Table 1
T2 construct: Add the Gal-4-RXR-DEF and VP16-VDR-LBD; expressed in transfected cells; host or cells: SaOs-2 cells
T2 sequence (P11473 127-423 limits assumed): T1 sequence (P11473 127-423 limits assumed)
T2 sequence (P19793 201-462 partner limits assumed): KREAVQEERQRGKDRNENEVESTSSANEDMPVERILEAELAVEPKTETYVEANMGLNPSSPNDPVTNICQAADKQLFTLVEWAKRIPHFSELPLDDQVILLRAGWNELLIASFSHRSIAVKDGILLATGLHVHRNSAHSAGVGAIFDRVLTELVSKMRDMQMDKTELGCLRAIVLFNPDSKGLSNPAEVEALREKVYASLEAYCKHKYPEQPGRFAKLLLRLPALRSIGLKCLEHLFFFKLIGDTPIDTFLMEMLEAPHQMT
Source text: 1. The RXR-VDR Heterodimer Assay:
This assay provides the VDR activity of a test compound.
(1) Materials and Method for RXR-VDR Heterodimerization Assay:
Transfection/Treatment Media: • D-MEM Low Glucose Without Phenol Red only
Flat well Plates: • Use well plate to plate cells • Use Deep well plate sterile to make up treatment media.
Luciferase Assay Reagent: • Use Steady-Glo Luciferase Reagent from Promega (Cat #E2550) Consists of: • a. E2533 Assay Substrate, lyopholized product and • b. E2543 Assay Buffer. • Thaw at room temperature • Store Day 1: Cell Plating: • Cell Harvesting • Aspirate media from culture flask, rinse cells with HBSS and aspirate. • Add trypsin and incubate. • When cells appear detached, resuspend cells in growth media. • Transfer into a new flask with fresh growth media for passaging the cells. • Plate well plates and two extra plates A. Cell Count • Mix the cell suspension using pipette • Use Hematocytometer to count the cells • Load cell suspension onto the hemocytometer chamber • Count cells.
Step 1: DNA and Media • Add plain DMEM media to tubes for mixing the DNA • Add the Reporter gene pFR-LUC • Add the Gal-4-RXR-DEF and VP16-VDR-LBD
Step 2: FuGENE and Media • Prepare plain DMEM media in a ubes for mixing PuGENE • Add FuGENE 6 Transection Reagent • Incubate
Step 3: FuGENE, DNA and Media Complex • Add FuGENE Media complex from step 2 to DNA Media complex from step1 • Incubate
as §1, with “Assay: […]” for “Assay:”

[2] = Rattus norvegicus, 48 h, Table 1
[3] = 72 hr, Table 2, read-out: Kera. Prolif. IC50
[4] = Rattus norvegicus, 48 h, Table 3 comparison compounds
[5] = Homo sapiens, Keratinocyte, 72 h, Table 4 comparison compounds, read-out: Kera. Prolif. IC50

| SMILES | EC50 (VDR) [nM] | EC50 (rat osteocalcin promoter; Table 1) | IC50 (KERtr cells; [3]) [nM] | EC50 (RXR-VDR heterodimer) | other results |
| --- | --- | --- | --- | --- | --- |
| CCC(CC)(c1ccc(OCC(O)C(C)(C)C)c(C)c1)c1ccc(C(=O)N(C)C)o1 (racemic) [Ex. 2, 3′-[4-(2-hydroxy-3,3-dimethylbutoxy)-3-methylphenyl]-3′-[5-dimethylaminocarbonyl-2-furanyl]pentane] | 25 | – | – | – | EC50 (rat osteocalcin promoter; [2]): 3 nM |
| CCC(CC)(c1ccc(OCC(O)C(C)(C)C)c(C)c1)c1ccc(C(=O)N(C)C)o1 (single isomer, unassigned) [Ex. 3, 3′-[4-(2-hydroxy-3,3-dimethylbutoxy)-3-methylphenyl]-3′-[5-dimethylaminocarbonyl-2-furanyl]pentane] | 391 | 4.6 nM and 2.5 nM | 1 | – | Mouse Hypercal ([1]; Table 1): >2000 µg/kg/day |
| CCC(CC)(c1ccc(OCC(O)C(C)(C)C)c(C)c1)c1ccc(C(=O)N(C)C)o1 (single isomer, unassigned) [Ex. 4, 3′-[4-(2-hydroxy-3,3-dimethylbutoxy)-3-methylphenyl]-3′-[5-dimethylaminocarbonyl-2-furanyl]pentane] | 333 | 2 nM and 1 nM | 4 | – | Mouse Hypercal ([1]; Table 1): >2000 µg/kg/day |
| CCc1cc(C(CC)(CC)c2ccc(C(=O)N(C)C)o2)ccc1OCC(O)C(C)(C)C (single isomer, unassigned; enantiomer 1) [Ex. 10, 3′-[4-(2-hydroxy-3,3-dimethyl-butoxy)-3-ethylphenyl]-3′-[5-dimethylaminocarbonyl-2-furanyl]pentane enantiomer 1] | 191 | – | 7 | – | Mouse Hypercal ([1]; Table 1): >1000 µg/kg/day |
| CCCc1cc(C(CC)(CC)c2ccc(C(=O)N(C)C)o2)ccc1OCC(O)C(C)(C)C (single isomer, unassigned; enantiomer 1) [Ex. 12, 3′-[4-(2-hydroxy-3,3-dimethyl-butoxy)-3-n-propyl-phenyl]-3′-[5-dimethylaminocarbonyl-2-furanyl]pentane enantiomer 1] | 187 | – | 17 | 188 nM | – |
| CCC(CC)(c1ccc(OCC(O)CO)c(C)c1)c1ccc(OCC(O)C(C)(C)C)c(C)c1 (centres unmarked) [BB, 3-(4-{1-Ethyl-1-[4-(2-hydroxy-3,3-dimethyl-butoxy)-3-methyl-phenyl]-propyl}-2-methyl-phenoxy)-propane-1,2-diol, reference compound] | – | – | – | – | EC50 (rat osteocalcin promoter; [4]): 8.24 nM; IC50 (KERtr cells; [5]): 10 nM; Mouse Hypercal μg/Kg/d ([1]; Table 3 comparison compounds): >=20 μg/Kg/d |
| Cc1cc(C2(c3ccc(OCC(=O)C(C)(C)C)c(C)c3)CCCCC2)ccc1OCC(=O)C(C)(C)C [CC, 1-(4-{1-[4-(3,3-Dimethyl-2-oxo-butoxy)-3-methyl-phenyl]-cyclohexyl}-2-methyl-phenoxy)-3,3-dimethyl-butan-2-one, reference compound] | – | – | – | – | EC50 (rat osteocalcin promoter; [4]): > 1000 nM |
| CCC(CC)(c1ccc(OCC(=O)C(C)(C)C)c(C)c1)c1ccc(OCC(=O)C(C)(C)C)c(C)c1 [DD, reference compound] | – | – | – | – | EC50 (rat osteocalcin promoter; [4]): 31.1 nM; IC50 (KERtr cells; [5]): 1060 nM; Mouse Hypercal ([1]; Table 3 comparison compounds): 1000 µg/kg/day |
| CCC(CC)(c1ccc(OCC(=O)C(C)(C)C)c(C)c1)c1ccc(OC[C@H](O)C(C)(C)C)c(C)c1 [EE, reference compound] | – | – | – | – | EC50 (rat osteocalcin promoter; [4]): 341 nM; Mouse Hypercal ([1]; Table 3 comparison compounds): 1000 µg/kg/day |
| CCN(CC)C(=O)c1ccc(C(CC)(CC)c2ccc(OCC(=O)C(C)(C)C)c(C)c2)o1 [Ex 7, 3′-[4-(2-oxo-3,3-dimethyl-butoxy)-3-methylphenyl]-3′-[5-diethylaminocarbonyl-2-furanyl]-pentane] | – | 95 nM | 23 | – | Mouse Hypercal ([1]; Table 1): >9000 µg/kg/day |
| CCC(O)(CC)COc1ccc(C(CC)(CC)c2ccc(C(=O)N(C)C)o2)cc1C [Ex 14, 3′-[4-(2-hydroxy-2-ethylbutoxy)-3-methylphenyl]-3′-[5-dimethylaminocarbonyl-2-furanyl]pentane] | 635 | – | – | 104 nM | EC50 (rat osteocalcin promoter; [2]): 101 nM |
| CCC(C)c1cc(C(CC)(CC)c2ccc(C(=O)N(C)C)o2)ccc1OCC(=O)C(C)(C)C (centres unmarked) [Ex. 5, 3′-[4-(2-oxo-3,3-dimethylbutoxy)-3-(2-butyl)phenyl]-3′-[5-dimethylaminocarbonyl-furan-2-yl]pentane] | 129 | 44 nM | – | 135 nM and 40 nM | EC50 (rat osteocalcin promoter; [2]): 33 nM; IC50 (KERtr cells; Homo sapiens, Keratinocyte, 72 h, Table 2, read-out: Kera. Prolif. IC50): 1000 nM |
| CCNC(=O)c1ccc(C(CC)(CC)c2ccc(OCC(=O)C(C)(C)C)c(C)c2)o1 [Ex. 6, 3′-[4-(2-oxo-3,3-dimethyl-butoxy)-3-methylphenyl]-3′-[5-ethylaminocarbonyl-2-furanyl]-pentane] | 315 | > 1000 nM | 112 | 320 nM | – |
| CCC(CC)(c1ccc(OCC(=O)C(C)(C)C)c(C)c1)c1oc(C(=O)N(C)C)cc1C [Ex. 8, 3′-[4-(2-oxo-3,3-dimethyl-butoxy)-3-methylphenyl]-3′-[5-dimethylaminocarbonyl-3-methyl-2-furanyl]-pentane] | 758 | 125 nM | > 1000 | 156 nM | – |
